Key:
[1] = system: C4-2 cells; experiment: C4-2 cell growth in vitro ([3H]-thymidine incorporation); type: cell-based, human
Experimental: The anti-proliferative effect of squalamine was evaluated in tissue culture by both crystal violet staining and [^3H]-thymidine incorporation, on the LNCaP/C4-2 human prostate cancer progression model. Developed by applicants' laboratory, this lineage-derived cell line recapitulates the progression of human neoplastic prostate disease from an androgen-dependent and minimally metastatic condition (LNCaP cells) to an androgen-independent (defined as being able to proliferate in castrate hosts) and highly aggressive state (C4-2 subline).

[2] = system: murine Lewis lung adenocarcinoma; experiment: Lung metastases of subcutaneous Lewis lung carcinoma; type: in vivo, C57BL/6 mice; details: day 20; squalamine 20 mg/kg/day s.c.; cyclophosphamide 125 mg/kg i.p. days 7, 9, 11; cisplatin 10 mg/kg i.p. day 7
Experimental: The murine Lewis lung adenocarcinoma was implanted subcutaneously in the hind-leg of male C57BL/6 mice and allowed to grow for one week. Groups of mice were then left untreated or treated with either squalamine (20 mg/kg/day, s.c.), cyclophosphamide (125 mg/kg, i.p. on days 7, 9 and 11), cisplatin (10 mg/kg, i.p. on day 7), the combination of squalamine and cyclophosphamide, or the combination of squalamine and cisplatin. On day 20, the animals were sacrificed, and the mean number of lung metastases were determined for each group.

[3] = Tissue distribution after i.v. administration; type: in vivo, mouse; details: two hours after i.v. administration
Source text: In addition to these squalamine half-life tests, applicants have tested to ascertain the distribution of squalamine in a mouse after intravenous administration. FIG. 7 illustrates the distribution of squalamine in mouse tissue two hours after i.v. administration. […] The test results shown in FIG. 7 indicate good squalamine distribution. […] In treating brain tumors, it is believed that the squalamine acts on the endothelial cells in the brain, and in this way, it need not cross the brain/blood barrier

[4] = system: H460; experiment: H460 lung tumor xenograft with carboplatin; type: in vivo, nude BALBc mice; details: carboplatin 60 mg/kg i.p. single dose, squalamine 20 mg/kg once daily for 5 days
Experimental: (§1) About 5×10^6 cells from each of two human lung tumor lines, H460 (a rapidly proliferating large cell carcinoma cell line, ATCC HTB-177) and Calu-6 (an anaplastic carcinoma, ATCC HTB-56), were inoculated subcutaneously in the right foreleg of nude BALBc mice. Once tumors were visible (3-5 days) with a mean volume of approximately 50-80 mm^3, mice were treated intraperitoneally with 60 mg/kg carboplatin (single dose) or 20 mg/kg/squalamine (once daily for 5 days) or a combination of carboplatin and squalamine. There were 8 mice per group. Tumor growth inhibition was scored by quantifying the size of tumors once control tumors reached a size of 1.0 gram and determining the ratio of mean treated tumor size to mean control tumor size (T/C). Tumor growth inhibition was then scored as 100% x [1-(T/C)]. A separate antitumor activity variable, tumor growth delay, was scored for the tumors by determining the length of time it required for the mean tumor size in a treatment group to reach a size of 500 mm^3 (B. A. Teicher et al., Anticancer Research 18, 2567-2574 (1998)). The tumor growth inhibition seen with carboplatin plus squalamine was greater than that seen with carboplatin or squalamine alone. The relative inactivity of squalamine as a single agent by this assay endpoint supports the idea that squalamine is synergistic with carboplatin in the inhibition of these two human lung tumor xenografts. Similarly, it was determined that squalamine enhanced the tumor growth delay caused by carboplatin by an enhancement factor of >2.3 (Table 7).

[5] = target: T1, rabbit NHE2 (Oryctolagus cuniculus, UniProt P50482); experiment: NHE activity, rabbit NHE2; type: cell-based; details: similar tests
T1 construct: expressed in transfected cells
T1 sequence (P50482 whole entry): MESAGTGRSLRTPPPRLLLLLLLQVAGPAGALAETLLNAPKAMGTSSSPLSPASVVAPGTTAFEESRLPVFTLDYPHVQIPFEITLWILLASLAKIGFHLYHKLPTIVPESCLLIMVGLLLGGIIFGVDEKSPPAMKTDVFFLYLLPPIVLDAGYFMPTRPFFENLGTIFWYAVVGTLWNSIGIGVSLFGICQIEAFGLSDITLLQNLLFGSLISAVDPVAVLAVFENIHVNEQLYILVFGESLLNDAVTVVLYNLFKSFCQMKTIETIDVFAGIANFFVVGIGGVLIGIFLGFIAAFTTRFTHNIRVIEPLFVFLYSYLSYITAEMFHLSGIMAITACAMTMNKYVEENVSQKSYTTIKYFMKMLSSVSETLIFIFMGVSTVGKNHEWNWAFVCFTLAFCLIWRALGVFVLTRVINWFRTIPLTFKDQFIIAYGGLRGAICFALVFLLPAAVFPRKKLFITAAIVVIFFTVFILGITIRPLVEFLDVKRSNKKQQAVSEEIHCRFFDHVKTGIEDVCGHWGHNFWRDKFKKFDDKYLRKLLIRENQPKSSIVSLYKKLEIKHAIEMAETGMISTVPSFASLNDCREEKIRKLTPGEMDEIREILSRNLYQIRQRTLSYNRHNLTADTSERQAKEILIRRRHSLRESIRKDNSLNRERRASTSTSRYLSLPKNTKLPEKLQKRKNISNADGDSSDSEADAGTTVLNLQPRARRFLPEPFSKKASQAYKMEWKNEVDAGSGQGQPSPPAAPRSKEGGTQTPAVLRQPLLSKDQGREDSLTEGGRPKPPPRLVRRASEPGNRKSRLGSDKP

[6] = system: VEGF-stimulated bovine retinal endothelial cells; experiment: Growth of VEGF-stimulated endothelial cells; type: cell-based; details: Bos taurus, Endothelial cell, 48 hours, VEGF 20 ng/ml
Experimental: In conducting this in vitro analysis, the following cell lines were tested: (a) bovine retinal endothelial cells; (b) 9L and C6 rat glioma cells; (c) human H80 glioma cells; and (d) VX2 rabbit carcinoma cells (the same type as the tumors implanted in the rabbit corneal micropocket assay test described above). The endothelial mitogen which was used in this analysis was VEGF at a concentration of 20 ng/ml.
The cells were allowed to attach overnight to tissue culture plates containing an optimized growth media. Following attachment, the cells were exposed to solvent only or 5 to increasing concentrations of squalamine (0, 10, 20, 30, 60, and 90 μg squalamine/ml). Cell growth was counted daily for three days using a Coulter Counter. A total of 10,000 cells per well were plated and each experimental concentration was tested in quadruplicate. The results were then averaged. The bovine retinal endothelial cells were grown and treated in an identical manner to the other cell lines, except that the growth of these cells was measured after the addition of 20 ng/ml of human recombinant VEGF to the cells prior to the squalamine treatment.
Percentage endothelial cell growth inhibition (%I) was determined by the following equation: [formula]

[7] = system: Calu-6; experiment: Calu-6 lung tumor xenograft with carboplatin; type: in vivo, nude BALBc mice; details: carboplatin 60 mg/kg i.p. single dose, squalamine 20 mg/kg once daily for 5 days
Experimental: as §1

[8] = system: transfected PS 120 fibroblast cells; experiment: LDH leakage from transfected cells; type: cell-based; details: during NHE inhibiting effect
Experimental: In the transfected cells used in this test, it took at least 30 minutes before the NHE3 inhibition effect induced by squalamine was observed.

CC(C)[C@@H](CC[C@@H](C)[C@H]1CC[C@H]2[C@@H]3[C@H](O)C[C@H]4C[C@@H](NCCCNCCCCN)CC[C@]4(C)[C@H]3CC[C@]12C)OS(=O)(=O)O [Squalamine, squalamine]
growth of C4-2 cells, squalamine by itself ([1]; no exogenous VEGF): nominal effect
C4-2 proliferation ([1]; with addition of exogenous VEGF, to a greater extent than LNCaP): inhibited
mean number of lung metastases [2]: reduced the number of metastases
distribution in mouse tissue [3]: most of the squalamine concentrating in the liver and the small intestine
squalamine in brain tissue [3]: not much squalamine is present in brain tissue
Tumor Growth Inhibition (T/C) [4]: 6%
effect on rabbit NHE2 [5]: not affected
inhibition at 10 µg/mL ([6]; 10 μg/ml): 38%
inhibition at 20 µg/mL ([6]; 20 μg/ml): 57%
inhibition at 30 µg/mL ([6]; 30 μg/ml): 83%
Tumor Growth Inhibition (T/C) [7]: 8%
LDH leakage from the cell [8]: absence of lactase dehydrogenase (LDH) leakage

Reference: patent US6596712B2, “Treatment of carcinomas using squalamine in combination with other anti-cancer agents or modalities” (Genaera Corporation, priority 1996, dated 2003)
